Assay results from article PMC4422330 (Bioorganic & medicinal chemistry letters, 2008).

Tests used:
[1] = target: T1, pfNDH2 (Plasmodium falciparum, UniProt Q8I302); test: biochemical; format: biochemical; settings: for inhibition of pfNDH2 activity (in words): purified recombinant pfNDH2, concentrations of up to 10 µM
[2] = target: T2, pfDHOD (Plasmodium falciparum, UniProt Q08210); test: biochemical
T2 sequence (Q08210 24-569): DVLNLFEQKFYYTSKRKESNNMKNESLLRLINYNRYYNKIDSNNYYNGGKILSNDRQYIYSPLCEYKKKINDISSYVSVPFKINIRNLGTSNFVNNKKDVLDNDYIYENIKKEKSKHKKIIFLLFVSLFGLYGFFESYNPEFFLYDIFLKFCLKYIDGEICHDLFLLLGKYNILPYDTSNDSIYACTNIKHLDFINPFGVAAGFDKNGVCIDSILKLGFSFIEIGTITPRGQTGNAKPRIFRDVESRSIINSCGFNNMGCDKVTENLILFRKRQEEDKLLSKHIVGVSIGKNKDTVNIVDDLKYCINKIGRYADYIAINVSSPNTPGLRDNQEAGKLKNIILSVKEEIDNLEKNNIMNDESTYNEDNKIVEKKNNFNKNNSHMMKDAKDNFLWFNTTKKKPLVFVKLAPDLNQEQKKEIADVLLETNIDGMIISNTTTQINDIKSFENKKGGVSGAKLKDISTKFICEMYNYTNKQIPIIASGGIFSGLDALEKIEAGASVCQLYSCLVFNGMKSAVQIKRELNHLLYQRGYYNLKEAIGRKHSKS

[3] = target: T1, pfNDH2; test: Kinetic properties of purified pfNDH2 with electron-accepting substrates; format: biochemical; settings: in vitro, absence of membrane components
[4] = system: P. falciparum DD2-scDHOD; format: cell-based, Plasmodium falciparum; settings: drug concentration of up to 10 µM
[5] = system: O=C1C=CC(=Nc2cc(Cl)c(O)c(Cl)c2)C=C1; test: Kinetic properties of purified pfNDH2 with electron-accepting substrates; format: biochemical, Plasmodium falciparum; settings: pH 8.0; 100.0 °C

Molecule | IC50 [1] | IC50 [2] | utilization as electron acceptor substrate by pfNDH2 (in words) [3] | other results
C[C@@H]1CC[C@H]2[C@@H](C)C(=O)O[C@@H]3O[C@@]4(C)CC[C@@H]1[C@]32OO4 [Artemisinin] | > 10 µM | > 10 µM | – | inhibition of pfNDH2 activity (in words) [1]: did not perturb catalysis
O=C1C(O)=C([C@H]2CC[C@H](c3ccc(Cl)cc3)CC2)C(=O)c2ccccc21 [Atovaquone] | > 10 µM | > 10 µM | – | –
COC1=C(OC)C(=O)C(C)=CC1=O [CoQ0] | – | – | detectable catalysis | –
COC1=C(OC)C(=O)C(CC=C(C)C)=C(C)C1=O [CoQ1] | – | – | detectable catalysis | –
COC1=C(OC)C(=O)C(C/C=C(\C)CC/C=C(\C)CC/C=C(\C)CCC=C(C)C)=C(C)C1=O [CoQ4] | – | – | not efficiently utilized | –
CCCCCCCCCCC1=C(C)C(=O)C(OC)=C(OC)C1=O [CoQD] | – | – | not efficiently utilized | –
O=c1cc(-c2ccccc2)oc2ccccc12 [Flavone] | > 10 µM | > 10 µM | – | –
CCCCCCCCCCCCc1cc(=O)c2ccccc2n1O [HDQ, 1-hydroxy-2-dodecyl-4(1H)quinolone] | > 10 µM | – | – | inhibition of pfNDH2 activity (in words) [1]: do not inhibit; proliferation of the scDHOD-expressing transgenic strain (in words) [4]: unaffected
[Cl-].c1ccc([I+]c2ccccc2)cc1 [IDP, diphenyliodonium chloride] | > 10 µM | > 10 µM | – | inhibition of pfNDH2 activity (in words) [1]: do not inhibit
C=C(C)[C@H]1Cc2c(ccc3c2O[C@@H]2COc4cc(OC)c(OC)cc4[C@@H]2C3=O)O1 [Rotenone] | > 10 µM | > 10 µM | – | –
pfNDH2 (Plasmodium falciparum 3D7) | – | – | – | Km [5]: 4.6 µM; kcat [5]: 0.0317 s⁻¹
